Data: US8048683B2, “Insect repellent and process for identifying other insect repellent molecules” (Centre National de la Recherche Scientifique, priority 2006, dated 2011)

Experiments:
DmX receptor (DmXR) = biological target: T1, DmX receptor (DmXR) (Drosophila melanogaster, UniProt Q70GQ8); experiment: Pharmacological test: DmXR activation in transfected HEK cells, measured by accumulation of inositol triphosphate; settings: FIG. 1
T1 sequence (Q70GQ8 1-1073): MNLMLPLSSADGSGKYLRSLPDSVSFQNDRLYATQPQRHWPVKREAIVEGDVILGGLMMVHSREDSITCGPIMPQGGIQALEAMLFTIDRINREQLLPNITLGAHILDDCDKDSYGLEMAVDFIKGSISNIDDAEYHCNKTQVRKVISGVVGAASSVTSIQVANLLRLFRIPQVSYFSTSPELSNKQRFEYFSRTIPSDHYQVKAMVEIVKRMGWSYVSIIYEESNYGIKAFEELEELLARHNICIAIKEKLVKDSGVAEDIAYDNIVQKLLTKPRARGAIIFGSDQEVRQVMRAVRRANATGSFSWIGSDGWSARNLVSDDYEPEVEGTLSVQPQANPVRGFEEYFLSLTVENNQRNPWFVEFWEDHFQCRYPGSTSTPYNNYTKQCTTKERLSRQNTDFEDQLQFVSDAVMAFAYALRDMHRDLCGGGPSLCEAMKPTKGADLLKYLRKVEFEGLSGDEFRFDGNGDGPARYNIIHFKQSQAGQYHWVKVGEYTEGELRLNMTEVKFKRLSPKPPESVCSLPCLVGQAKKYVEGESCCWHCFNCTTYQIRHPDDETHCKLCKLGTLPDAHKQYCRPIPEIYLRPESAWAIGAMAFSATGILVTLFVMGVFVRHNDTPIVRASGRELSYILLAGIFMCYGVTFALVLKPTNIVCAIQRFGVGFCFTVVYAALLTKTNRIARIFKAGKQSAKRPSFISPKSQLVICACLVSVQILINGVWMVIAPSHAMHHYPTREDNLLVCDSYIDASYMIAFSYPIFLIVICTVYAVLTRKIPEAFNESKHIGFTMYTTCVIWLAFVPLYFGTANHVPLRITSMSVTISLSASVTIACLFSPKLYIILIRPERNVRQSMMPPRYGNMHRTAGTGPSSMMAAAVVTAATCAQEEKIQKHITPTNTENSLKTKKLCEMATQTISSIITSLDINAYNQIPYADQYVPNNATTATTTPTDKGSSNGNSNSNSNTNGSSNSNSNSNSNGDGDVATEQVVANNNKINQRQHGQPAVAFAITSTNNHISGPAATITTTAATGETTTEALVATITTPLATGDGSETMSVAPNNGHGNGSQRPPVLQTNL

drosophilas = experiment: Gustatory choice (feeding preference) behavioral test with two dyes; assay type: in vivo, Drosophila melanogaster
Protocol: The test used measures the feeding preference in a choice with 2 possibilities materialized by two dyes, on the one hand erioglaucine (blue) and, on the other hand, sulforhodamine (red).
The erioglaucine is used at a final concentration of 5 mg/ml, dissolved in double-distilled water, pH 7.5. The sulforhodamine is used at a final concentration of 20 mg/ml, dissolved in double-distilled water, pH 7.5. The 2 dye solutions also contain sucrose fat a final concentration of 5 mM). The agonists (pH=7.5) used are added, an the final concentrations indicated on the figures, to the solution containing the erioglaucine.
To prepare a solid medium, these various compounds are added to a molten solution of agarose (0.3% final concentration, 45° C.) and deposited in a 96-well cell culture plate (Corning Incorporated, ref 3599) such that the wells alternately contain 200 μl of blue dye then 200 μl of red dye (see FIG. 4). The plates are left at ambient temperature for 2 hours in order for the agarose to solidify, and are then used for a feeding preference test.
For each behavioral test, 60 2- to 5-day-old drosophilas are deprived of food for 24 hours on cotton wool soaked with distilled water before the test and are then placed in a box containing a 96-well plate prepared as indicated above. The drosophilas are left in the dark for 2 hours, at 25° C., at a humidity of 30 to 50%. The drosophilas are then rapidly collected by anesthesia with CO2 and then frozen at −20° C. for 20 minutes. In order to determine the food intake, the flies are counted according to the color of the content of their digestive tube. The results are expressed as % of flies which have eaten a given medium relative to the total number of flies which have eaten, according to the formula: % blue=number of flies with a blue digestive tube, divided by the number of flies which have eaten (sum of the flies with a blue, violet or red digestive tube), multiplied by 100.
At least 3 independent tests were carried out for each point indicated on the figures, and the results of the tests were counted blind for the majority of the points. Only the tests in which more than […] of the flies had eaten were included in the results and in the statistical tests (T test and ANOVA). […]
The flies are counted according to the color of the content of their digestive tube.
The results are expressed as percentage of flies which have eaten a given medium, relative to the total number of flies which have eaten. % blue=N blue/(N blue+N violet+N red)×100 […]

SMILES: N=C(N)NOCC[C@H](N)C(=O)O [L-canavanine, L-2-amino-4-(guanidinooxy)butyric acid]
- in vitro activation of the DmX receptor (DmX receptor (DmXR)): activated
- effect on sugary solution in behavioral test (drosophilas; 40 mM, 5 mM sucrose): very highly repellent
- concentration at which a plateau of repellent effect is reached (drosophilas; additional experiments): around 30 mM
- repulsion in DmX receptor function loss mutants (drosophilas; mutant drosophilas m1 and m2 (DmXR-)): no longer have any repulsion
- repellent effect in chemosensory behavioral test (drosophilas; wild-type drosophila, sugary solution (5 mM sucrose)): highly repellent
